According to PubChem BioAssay (NCI):
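All cell lines were grown in 96-well plates and treated with compound for 48 hours. TGI: total growth inhibition.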

Key:
Test in all cases: inhibition of tumour cell growth, NCI panel, 48 h
HOP-62 NSCLC = test system: HOP-62 NSCLC
SK-OV-3 ovarian = test system: SK-OV-3 ovarian
HCC-2998 colon = test system: HCC-2998 colon
HT29 colon = test system: HT29 colon
RPMI-8226 leukemia = test system: RPMI-8226 leukemia
DMS 114 small cell lung = test system: DMS 114 small cell lung
UACC-257 melanoma = test system: UACC-257 melanoma
NCI-H23 lung = test system: NCI-H23 lung
MALME-3M melanoma = test system: MALME-3M melanoma
XF 498 CNS = test system: XF 498 CNS
IGROV1 ovarian = test system: IGROV1 ovarian
KM12 colon = test system: KM12 colon
TK-10 renal = test system: TK-10 renal
COLO 205 colon = test system: COLO 205 colon
LXFL 529 NSCLC = test system: LXFL 529 NSCLC
HOP-92 NSCLC = test system: HOP-92 NSCLC
U251 CNS = test system: U251 CNS
RXF 393 renal = test system: RXF 393 renal
SF-295 CNS = test system: SF-295 CNS
CCRF-CEM leukemia = test system: CCRF-CEM leukemia
NCI-H460 lung = test system: NCI-H460 lung
786-0 renal = test system: 786-0 renal
KM20L2 colon = test system: KM20L2 colon
A549 NSCLC = test system: A549 NSCLC
HCT-116 colon = test system: HCT-116 colon
OVCAR-8 ovarian = test system: OVCAR-8 ovarian
CAKI-1 renal = test system: CAKI-1 renal
DMS 273 small cell lung = test system: DMS 273 small cell lung
DLD-1 colon = test system: DLD-1 colon
NCI-H226 lung = test system: NCI-H226 lung
HCT-15 colon = test system: HCT-15 colon
UACC-62 melanoma = test system: UACC-62 melanoma
OVCAR-3 ovarian = test system: OVCAR-3 ovarian
SR leukemia = test system: SR leukemia
OVCAR-5 ovarian = test system: OVCAR-5 ovarian
SK-MEL-28 melanoma = test system: SK-MEL-28 melanoma
SW-620 colon = test system: SW-620 colon
EKVX NSCLC = test system: EKVX NSCLC
NCI-H522 lung = test system: NCI-H522 lung
K-562 leukemia = test system: K-562 leukemia
MOLT-4 leukemia = test system: MOLT-4 leukemia
HL-60(TB) leukemia = test system: HL-60(TB) leukemia
SK-MEL-5 melanoma = test system: SK-MEL-5 melanoma
SF-539 CNS = test system: SF-539 CNS
SNB-19 CNS = test system: SNB-19 CNS
RXF-631 renal = test system: RXF-631 renal
LOX IMVI melanoma = test system: LOX IMVI melanoma
SK-MEL-2 melanoma = test system: SK-MEL-2 melanoma
SF-268 CNS = test system: SF-268 CNS
ACHN renal = test system: ACHN renal
SN12C renal = test system: SN12C renal
SNB-78 CNS = test system: SNB-78 CNS
M14 melanoma = test system: M14 melanoma
UO-31 renal = test system: UO-31 renal
OVCAR-4 ovarian = test system: OVCAR-4 ovarian
HOP-18 NSCLC = test system: HOP-18 NSCLC
SNB-75 CNS = test system: SNB-75 CNS
A498 renal = test system: A498 renal
M19-MEL melanoma = test system: M19-MEL melanoma

N/N=c1/nc2n(c3ncccc13)C=CNN2
TGI (HOP-62 NSCLC): > 100 µM | TGI (SK-OV-3 ovarian): > 100 µM | TGI (HCC-2998 colon): > 100 µM | TGI (HT29 colon): > 100 µM | TGI (RPMI-8226 leukemia): > 100 µM | TGI (DMS 114 small cell lung): > 100 µM | TGI (UACC-257 melanoma): > 100 µM | TGI (NCI-H23 lung): > 100 µM | TGI (MALME-3M melanoma): > 100 µM | TGI (XF 498 CNS): > 100 µM | TGI (IGROV1 ovarian): > 100 µM | TGI (KM12 colon): > 100 µM | TGI (TK-10 renal): > 100 µM | TGI (COLO 205 colon): > 100 µM | TGI (LXFL 529 NSCLC): > 100 µM | TGI (HOP-92 NSCLC): > 100 µM | TGI (U251 CNS): > 100 µM | TGI (RXF 393 renal): > 100 µM | TGI (SF-295 CNS): > 100 µM | TGI (CCRF-CEM leukemia): > 100 µM | TGI (NCI-H460 lung): > 100 µM | TGI (786-0 renal): > 100 µM | TGI (KM20L2 colon): > 100 µM | TGI (A549 NSCLC): > 100 µM | TGI (HCT-116 colon): > 100 µM | TGI (OVCAR-8 ovarian): > 100 µM | TGI (CAKI-1 renal): > 100 µM | TGI (DMS 273 small cell lung): > 100 µM | TGI (DLD-1 colon): > 100 µM | TGI (NCI-H226 lung): > 100 µM | TGI (HCT-15 colon): > 100 µM | TGI (UACC-62 melanoma): > 100 µM | TGI (OVCAR-3 ovarian): > 100 µM | TGI (SR leukemia): > 100 µM | TGI (OVCAR-5 ovarian): > 100 µM | TGI (SK-MEL-28 melanoma): > 100 µM | TGI (SW-620 colon): > 100 µM | TGI (EKVX NSCLC): > 100 µM | TGI (NCI-H522 lung): > 100 µM | TGI (K-562 leukemia): > 100 µM | TGI (MOLT-4 leukemia): > 100 µM | TGI (HL-60(TB) leukemia): > 100 µM | TGI (SK-MEL-5 melanoma): > 100 µM | TGI (SF-539 CNS): > 100 µM | TGI (SNB-19 CNS): > 100 µM | TGI (RXF-631 renal): > 100 µM | TGI (LOX IMVI melanoma): > 100 µM | TGI (SK-MEL-2 melanoma): > 100 µM | TGI (SF-268 CNS): > 100 µM | TGI (ACHN renal): > 100 µM | TGI (SN12C renal): > 100 µM

CN(C)CC1CC/C(=C\c2ccc(Cl)c(Cl)c2)C1=O (centres undefined)
TGI (HOP-62 NSCLC): > 95.1 µM | TGI (SNB-78 CNS): > 78.8 µM | TGI (M14 melanoma): 48.5 µM | TGI (SK-OV-3 ovarian): > 100 µM | TGI (HCC-2998 colon): > 58.5 µM | TGI (HT29 colon): 54.4 µM | TGI (RPMI-8226 leukemia): 8.92 µM | TGI (DMS 114 small cell lung): > 72.7 µM | TGI (UACC-257 melanoma): > 60.9 µM | TGI (NCI-H23 lung): 47.3 µM | TGI (UO-31 renal): > 55.9 µM | TGI (MALME-3M melanoma): > 100 µM | TGI (XF 498 CNS): > 65.4 µM | TGI (IGROV1 ovarian): > 69.6 µM | TGI (KM12 colon): 35.7 µM | TGI (TK-10 renal): 19.9 µM | TGI (COLO 205 colon): > 51.8 µM | TGI (OVCAR-4 ovarian): 58.2 µM | TGI (LXFL 529 NSCLC): 27 µM | TGI (HOP-92 NSCLC): 48.2 µM | TGI (U251 CNS): > 56.5 µM | TGI (RXF 393 renal): > 61.8 µM | TGI (SF-295 CNS): > 78.4 µM | TGI (CCRF-CEM leukemia): 22.7 µM | TGI (NCI-H460 lung): 36.1 µM | TGI (786-0 renal): 26.7 µM | TGI (KM20L2 colon): > 50.2 µM | TGI (A549 NSCLC): > 100 µM | TGI (HCT-116 colon): > 61.7 µM | TGI (OVCAR-8 ovarian): > 58.9 µM | TGI (HOP-18 NSCLC): > 100 µM | TGI (CAKI-1 renal): 56.1 µM | TGI (DMS 273 small cell lung): > 51.9 µM | TGI (DLD-1 colon): 50.1 µM | TGI (NCI-H226 lung): > 100 µM | TGI (HCT-15 colon): > 43.1 µM | TGI (SNB-75 CNS): > 66.6 µM | TGI (UACC-62 melanoma): 31.5 µM | TGI (OVCAR-3 ovarian): > 61.5 µM | TGI (SR leukemia): 6.91 µM | TGI (OVCAR-5 ovarian): > 86.8 µM | TGI (SK-MEL-28 melanoma): > 84.8 µM | TGI (SW-620 colon): > 51.6 µM | TGI (EKVX NSCLC): > 58.7 µM | TGI (NCI-H522 lung): 17.7 µM | TGI (A498 renal): 73.6 µM | TGI (K-562 leukemia): > 27.1 µM | TGI (M19-MEL melanoma): > 51.2 µM | TGI (MOLT-4 leukemia): 19 µM | TGI (HL-60(TB) leukemia): 4.68 µM | TGI (SK-MEL-5 melanoma): > 72.9 µM | TGI (SF-539 CNS): > 55.7 µM | TGI (SNB-19 CNS): > 56.1 µM | TGI (LOX IMVI melanoma): 18.4 µM | TGI (SK-MEL-2 melanoma): > 62.9 µM | TGI (SF-268 CNS): > 74.3 µM | TGI (ACHN renal): > 62.5 µM | TGI (SN12C renal): > 55.8 µM

COC(=O)C(=O)C(C#N)c1nc2ccccc2s1 (centres undefined)
TGI (HOP-62 NSCLC): > 100 µM | TGI (SNB-78 CNS): > 100 µM | TGI (M14 melanoma): > 100 µM | TGI (SK-OV-3 ovarian): > 100 µM | TGI (HCC-2998 colon): > 100 µM | TGI (HT29 colon): > 100 µM | TGI (RPMI-8226 leukemia): > 100 µM | TGI (DMS 114 small cell lung): > 100 µM | TGI (UACC-257 melanoma): > 100 µM | TGI (NCI-H23 lung): > 100 µM | TGI (UO-31 renal): > 100 µM | TGI (MALME-3M melanoma): > 100 µM | TGI (XF 498 CNS): > 100 µM | TGI (IGROV1 ovarian): > 100 µM | TGI (TK-10 renal): > 100 µM | TGI (COLO 205 colon): > 100 µM | TGI (OVCAR-4 ovarian): > 100 µM | TGI (LXFL 529 NSCLC): > 100 µM | TGI (HOP-92 NSCLC): > 100 µM | TGI (RXF 393 renal): > 100 µM | TGI (SF-295 CNS): > 100 µM | TGI (CCRF-CEM leukemia): > 100 µM | TGI (NCI-H460 lung): > 100 µM | TGI (786-0 renal): > 100 µM | TGI (KM20L2 colon): > 100 µM | TGI (A549 NSCLC): > 100 µM | TGI (HCT-116 colon): > 100 µM | TGI (OVCAR-8 ovarian): > 100 µM | TGI (CAKI-1 renal): > 100 µM | TGI (DMS 273 small cell lung): > 100 µM | TGI (DLD-1 colon): > 100 µM | TGI (NCI-H226 lung): > 100 µM | TGI (HCT-15 colon): > 100 µM | TGI (SNB-75 CNS): > 100 µM | TGI (UACC-62 melanoma): > 100 µM | TGI (OVCAR-3 ovarian): > 100 µM | TGI (OVCAR-5 ovarian): > 100 µM | TGI (SK-MEL-28 melanoma): > 100 µM | TGI (SW-620 colon): > 100 µM | TGI (EKVX NSCLC): > 100 µM | TGI (NCI-H522 lung): > 100 µM | TGI (A498 renal): > 100 µM | TGI (K-562 leukemia): > 100 µM | TGI (M19-MEL melanoma): > 100 µM | TGI (MOLT-4 leukemia): > 100 µM | TGI (HL-60(TB) leukemia): > 100 µM | TGI (SK-MEL-5 melanoma): > 100 µM | TGI (SF-539 CNS): > 100 µM | TGI (SNB-19 CNS): > 100 µM | TGI (RXF-631 renal): > 100 µM | TGI (LOX IMVI melanoma): > 100 µM | TGI (SK-MEL-2 melanoma): > 100 µM | TGI (SF-268 CNS): > 100 µM | TGI (ACHN renal): > 100 µM | TGI (SN12C renal): > 100 µM
